# The source made the active and inactive calls.
# Tested on: H9c2;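 further: confirmatory concentration-response retest of ultra-high-throughput screening hits for modulation of myocardial damage; cell death induced by hydrogen peroxide oxidative stress; compound pretreatment for 60 min then peroxide exposure for 2 h; potency is for protecting the cells against peroxide damage rather than for killing them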
# Assay: cells
# Assay type: functional, cell-based
# Conditions: Rattus norvegicus, H9c2, Myocardium
row,Compound,IC50
1,COc1ccc(-c2csc(NC(=O)CCCc3nc(O)c4ccccc4n3)n2)cc1OC,> 79 µM (inactive)
2,COc1ccc(CNn2c(-c3cccs3)nc3ccccc3c2=O)cc1OC,8.92 µM (active)
3,CCOC(=O)Cc1csc(SCc2cc(=O)oc3cc(O)ccc23)n1,> 79 µM (inactive)
4,O=C(CSc1nc(O)c2ccccc2n1)c1ccccc1,> 79 µM (inactive)
5,CCOC(=O)CSc1nc(O)c2c(C)c(C)sc2n1,10.2 µM (active)
6,COc1ccc(-n2nc(C(=O)NCC(=O)Nc3cc(OC)c(OC)c(OC)c3)c3ccccc3c2=O)cc1Cl,> 79 µM (inactive)
7,COc1ccccc1NC(=O)c1ccc(NC(=O)Cc2nnc(O)c3ccccc23)cc1,> 79 µM (inactive)
8,CN(CC(=O)Nc1ccccc1Cl)C(=O)CCc1nc(O)c2ccccc2n1,23.8 µM (active)
9,COc1cc(-c2nnc(-c3cc(-c4ccccc4)nc4ccccc34)o2)cc(OC)c1OC,10.5 µM (active)
10,CC(=O)Nc1cccc(/C(C)=N/NC(=O)c2cccs2)c1,> 79 µM (inactive)
11,O=C(CNC(=O)c1cccc(F)c1)N/N=C/c1cc(Br)ccc1OC(=O)/C=C/c1ccco1,> 79 µM (inactive)
12,Cc1cccc(/N=C/c2c(O)ccc3oc4c(c23)CCCC4)n1,> 79 µM (inactive)

# Biological target: Cytochrome P450 2C19 (Homo sapiens, UniProt P33261)
# Sequence (P33261 whole entry): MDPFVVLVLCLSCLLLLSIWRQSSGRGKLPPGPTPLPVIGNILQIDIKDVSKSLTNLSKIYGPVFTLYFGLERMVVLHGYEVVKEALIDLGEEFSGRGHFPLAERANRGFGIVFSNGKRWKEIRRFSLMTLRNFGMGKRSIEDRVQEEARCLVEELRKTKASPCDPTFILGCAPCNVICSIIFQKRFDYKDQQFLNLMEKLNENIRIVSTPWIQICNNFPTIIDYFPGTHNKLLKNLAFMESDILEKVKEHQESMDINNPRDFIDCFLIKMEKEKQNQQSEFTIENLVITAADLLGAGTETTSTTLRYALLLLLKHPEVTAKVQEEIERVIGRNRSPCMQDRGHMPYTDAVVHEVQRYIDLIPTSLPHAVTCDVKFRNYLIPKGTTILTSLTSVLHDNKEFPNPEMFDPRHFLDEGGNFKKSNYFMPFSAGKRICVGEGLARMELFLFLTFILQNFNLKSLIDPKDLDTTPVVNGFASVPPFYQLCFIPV
# Assay: Cytochrome panel assay with activity outcomes. Panel member name: p450-cyp2c19 Compounds with AC50 equal or less than 10 uM are considered active
# Assay type: functional
# Conditions: read-out: AC50
row,Compound,AC50
1,CCCOc1ccc(C2C(=O)N(C3CCCCC3)CC(=O)N2C2CC2)cc1OC (configuration not stated),39.8 µM (inconclusive)
2,CS(=O)(=O)Nc1ccc(C(=O)N2CCN(c3ccccc3)CC2)cc1,39.8 µM (inconclusive)
3,CCn1c(=O)c2c(=O)cc(O)oc2c2ccccc21,3.55 µM (inconclusive)
4,O=C(Cn1ccc([N+](=O)[O-])n1)NCc1cccs1,14.1 µM (inconclusive)

# Tested on: Streptococcus sp. 'group A'
# Assay: growth inhibition of control SK(-) GAS strain, dose response, counter-screen for streptokinase expression inhibitor project, luminescence, kanamycin, BacTiterGlo, confirmation (AID 1900)
# Assay type: functional, organism-based
# Conditions: not given
row,Compound,EC50
1,CC(=O)c1ccc(NC(S)=Nc2ccc(Br)c(Cl)c2)cc1,7.95 µM (active)
2,COC(=O)C(C)N=C(S)N1CCN(c2c(F)cc3c(=O)c(C(=O)O)cn(C4CC4)c3c2OC)CC1C (configuration not stated),2.85 µM (active)

# Biological target: Paired box protein Pax-8 (Homo sapiens, UniProt Q06710)
# Sequence (Q06710 whole entry): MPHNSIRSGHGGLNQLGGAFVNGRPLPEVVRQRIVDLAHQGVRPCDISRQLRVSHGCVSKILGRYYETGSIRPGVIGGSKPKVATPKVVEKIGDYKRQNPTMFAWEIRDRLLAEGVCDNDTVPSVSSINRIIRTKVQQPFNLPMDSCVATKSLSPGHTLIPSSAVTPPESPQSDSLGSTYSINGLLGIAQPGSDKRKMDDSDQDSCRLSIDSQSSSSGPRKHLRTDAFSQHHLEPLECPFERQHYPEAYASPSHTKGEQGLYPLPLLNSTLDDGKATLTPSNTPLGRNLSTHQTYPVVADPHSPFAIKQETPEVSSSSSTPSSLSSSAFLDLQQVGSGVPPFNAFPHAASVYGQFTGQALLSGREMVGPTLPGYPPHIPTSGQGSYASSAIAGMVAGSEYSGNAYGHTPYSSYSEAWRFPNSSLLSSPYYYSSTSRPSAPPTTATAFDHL
# Assay: inhibitors of PAX8-driven TPO luciferase reporter, dose response, RMG-I cells, cherry-pick (AID 687027);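 further: luciferase reporter driven by Pax8 target thyroperoxidase promoter measured by SteadyGlo luminescence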
# Assay type: functional, cell-based
# Conditions: not given
row,Compound,AC50
1,COc1cccc(-c2nc(CS(=O)(=O)CC(=O)NCCCN3CC(C)CC(C)C3)c(C)o2)c1 (configuration not stated),19.1 µM (active)
2,Oc1nc2ccccc2n1C1CCN(C(c2cccc3ccccc23)c2nnnn2-c2ccc3c(c2)OCCO3)CC1 (configuration not stated),3.78 µM (active)

# Tested on: Streptococcus
# Assay: Group A Streptococcus viability loss, dose response, counter-screen for streptokinase expression inhibitor project, luminescence, BacTiterGlo (AID 1915);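 further: potency for reduction of bacterial viability or growth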
# Assay type: functional, organism-based
# Conditions: not given
row,Compound,EC50
1,CC(=O)c1ccc(NC(S)=Nc2ccc(Br)c(Cl)c2)cc1,8.74 µM (active)
2,COC(=O)C(C)N=C(S)N1CCN(c2c(F)cc3c(=O)c(C(=O)O)cn(C4CC4)c3c2OC)CC1C (configuration not stated),4.39 µM (active)

# Biological target: T1, Rac GTPase-activating protein 1 (Homo sapiens, UniProt Q9H0H5)
# T1 sequence (Q9H0H5 whole entry): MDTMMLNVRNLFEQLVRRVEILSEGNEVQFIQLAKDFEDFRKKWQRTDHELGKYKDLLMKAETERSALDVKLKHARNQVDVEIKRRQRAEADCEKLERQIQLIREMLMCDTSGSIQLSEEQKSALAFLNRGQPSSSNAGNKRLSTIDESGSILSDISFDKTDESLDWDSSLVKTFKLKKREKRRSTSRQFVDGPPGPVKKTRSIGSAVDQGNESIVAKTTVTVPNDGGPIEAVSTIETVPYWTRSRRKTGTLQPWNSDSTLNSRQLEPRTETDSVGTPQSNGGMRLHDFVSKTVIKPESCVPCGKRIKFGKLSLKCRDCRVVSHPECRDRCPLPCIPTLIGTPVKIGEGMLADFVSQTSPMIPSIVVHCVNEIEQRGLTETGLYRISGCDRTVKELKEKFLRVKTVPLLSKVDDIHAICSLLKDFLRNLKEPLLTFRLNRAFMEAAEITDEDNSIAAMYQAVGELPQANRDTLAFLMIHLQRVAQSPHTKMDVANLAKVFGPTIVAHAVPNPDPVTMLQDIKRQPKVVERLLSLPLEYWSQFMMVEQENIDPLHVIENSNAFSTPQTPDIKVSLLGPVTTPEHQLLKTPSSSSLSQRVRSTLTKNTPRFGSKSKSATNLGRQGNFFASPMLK
# Assay: MgcRacGAP GTPase-activating activity inhibitors, confirmation, biochemical, ADP Hunter fluorescence, primary and confirmatory (AID 624330)
# Assay type: functional
# Conditions: not given
row,Compound,IC50
1,COc1ccc(NC2CCCN(C(=O)c3ccccc3N3CCOCC3)C2)cc1OC (configuration not stated),198 µM (active)
2,CCn1c2ccccc2c2cc(NC(=O)CNC)ccc21,100 µM (active)
3,Brc1cccc(OCCN2CCOCC2)c1,134 µM (active)
4,COc1cc(/C=N/NC(=O)C2(O)c3ccccc3-c3ccccc32)ccc1O,47.6 µM (active)
5,O=C(CNC(=O)c1cccs1)N/N=C/c1ccc(O)cc1O,63.7 µM (active)

# Biological target: T2, Cytochrome P450 1A2 (Homo sapiens, UniProt P05177);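 further: PubChem cytochrome P450 panel assay, CYP1A2 panel member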
# T2 sequence (P05177 whole entry): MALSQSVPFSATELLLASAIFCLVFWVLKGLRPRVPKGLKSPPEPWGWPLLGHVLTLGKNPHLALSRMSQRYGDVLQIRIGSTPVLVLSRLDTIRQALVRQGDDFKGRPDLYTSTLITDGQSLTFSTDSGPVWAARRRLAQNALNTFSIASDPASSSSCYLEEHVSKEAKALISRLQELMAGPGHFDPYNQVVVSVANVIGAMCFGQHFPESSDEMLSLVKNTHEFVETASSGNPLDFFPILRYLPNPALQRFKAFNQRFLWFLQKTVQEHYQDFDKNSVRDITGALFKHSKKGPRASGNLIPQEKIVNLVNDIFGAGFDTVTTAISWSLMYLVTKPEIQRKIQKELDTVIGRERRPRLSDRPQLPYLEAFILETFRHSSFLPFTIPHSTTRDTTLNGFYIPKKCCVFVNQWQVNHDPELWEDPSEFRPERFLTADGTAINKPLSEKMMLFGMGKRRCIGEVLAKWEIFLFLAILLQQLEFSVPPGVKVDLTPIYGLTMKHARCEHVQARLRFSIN
# Assay: not given
# Conditions: not given
row,Compound,AC50
1,NCCSC(c1ccccc1)c1ccccc1,1.58 µM (inconclusive)
2,O=C(Cn1ccc([N+](=O)[O-])n1)NCc1cccs1,15.8 µM (inconclusive)
3,COCCn1c(=O)c(-c2ccc(OC)cc2)nc2cnc(Oc3cccc(Cl)c3)nc21,6.31 µM (inconclusive)

# Biological target: Cytochrome P450 2C9 (Homo sapiens, UniProt P11712)
# Sequence (P11712 whole entry): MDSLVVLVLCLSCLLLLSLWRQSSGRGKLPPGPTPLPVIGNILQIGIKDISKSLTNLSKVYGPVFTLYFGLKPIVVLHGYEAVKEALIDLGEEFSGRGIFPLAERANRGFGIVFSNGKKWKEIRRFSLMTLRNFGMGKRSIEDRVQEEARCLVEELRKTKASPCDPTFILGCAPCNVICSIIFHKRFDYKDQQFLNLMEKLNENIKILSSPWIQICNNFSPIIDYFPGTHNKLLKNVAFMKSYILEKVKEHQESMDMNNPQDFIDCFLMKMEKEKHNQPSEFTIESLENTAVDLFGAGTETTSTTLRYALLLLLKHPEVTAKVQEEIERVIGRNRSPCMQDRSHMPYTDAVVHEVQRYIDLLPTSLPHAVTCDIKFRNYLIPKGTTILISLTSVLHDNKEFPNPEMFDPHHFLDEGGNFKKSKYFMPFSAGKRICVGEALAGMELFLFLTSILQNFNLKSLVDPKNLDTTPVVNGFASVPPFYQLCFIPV
# Assay: not given
# Conditions: not given
row,Compound,AC50
1,CS(=O)(=O)Nc1ccc(C(=O)N2CCN(c3ccccc3)CC2)cc1,7.94 µM (inconclusive)
2,O=C(C[N+]12CN3CN(CN(C3)C1)C2)c1ccc(-c2ccccc2)cc1,3.16 µM (inconclusive)
3,Cc1ccc(COn2c(-c3ccc(Cl)cc3)nc3ccc([N+](=O)[O-])cc32)cc1,8.91 µM (inconclusive)

# Tested on: not listed separately
# Assay: Luminescence Cell-Based Dose Retest to Confirm Inhibitors of Cancer Stem Cells. [Related pubchem assays (depositor defined):AID2717, AID2721]
# Assay type: functional
# Conditions: Homo sapiens
row,Compound,AC50
1,COC(=O)Nc1nc2cc(-c3nnc(O)c4ccccc34)ccc2[nH]1,11.2 µM (active)
2,COc1cc(OC)cc(-c2sc3ccc(OC)cc3c2-c2ccc3cc[nH]c3c2)c1,1.87 µM (active)
3,COc1ccc(N/N=C(/C(C)=O)N2CCCc3ccccc32)cc1,1.58 µM (active)
4,Cc1ccc(N/N=C/c2cccnc2)cc1,4.39 µM (active)
5,O=C(/C(=N/Nc1cccc(C(F)(F)F)c1)C(=O)C(F)(F)F)c1cccs1,1.76 µM (active)
6,COc1ccc(OC)c(-c2nnc3n2N=C(c2ccc(OC(F)F)c(OCC4CC4)c2)CS3)c1,7.23 µM (active)

# Tested on: not listed separately
# Assay: HEp-2 cell cytotoxicity, dose response, cytotoxicity control for RSV inhibitor project, HTS (AID 2410)
# Assay type: functional
# Conditions: human respiratory syncytial virus
row,Compound,CC50
1,CCOCC(=O)Nc1ccc([N+](=O)[O-])cc1Cl,> 50 µM (active)

# Biological target: T3, Heat shock factor protein 1 (Mus musculus, UniProt P38532)
# T3 sequence (P38532 whole entry): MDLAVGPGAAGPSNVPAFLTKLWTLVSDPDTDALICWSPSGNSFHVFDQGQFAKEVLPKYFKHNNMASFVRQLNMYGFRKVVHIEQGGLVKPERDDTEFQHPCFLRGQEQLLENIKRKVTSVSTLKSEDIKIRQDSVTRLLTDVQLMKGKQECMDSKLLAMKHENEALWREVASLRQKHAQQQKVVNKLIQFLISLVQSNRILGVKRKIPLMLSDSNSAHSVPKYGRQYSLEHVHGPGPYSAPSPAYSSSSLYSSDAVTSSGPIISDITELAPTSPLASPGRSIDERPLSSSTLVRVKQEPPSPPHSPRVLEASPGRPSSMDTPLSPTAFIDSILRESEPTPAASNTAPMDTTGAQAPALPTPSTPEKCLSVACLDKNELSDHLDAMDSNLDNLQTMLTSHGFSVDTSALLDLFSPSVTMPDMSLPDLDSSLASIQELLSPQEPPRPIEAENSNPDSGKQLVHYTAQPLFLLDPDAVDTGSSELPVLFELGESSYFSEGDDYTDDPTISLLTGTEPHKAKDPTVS
# Assay: inhibition of MG132-induced HSE-luciferase signal, confirmation, cell-based, NIH3T3, luminescence, dose retest (AID 2382);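 further: NIH3T3 fibroblasts with HSF1-driven luciferase reporter stressed by proteasome inhibitor MG132; luminescence from HSF1-driven luciferase expression after 8 hours of MG132 stress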
# Assay type: functional
# Conditions: not given
row,Compound,EC50
1,Cc1cn2c(nc(=O)c3cccnc32)s1,> 195 µM (not active)
2,COc1cc(C=O)ccc1OC(=O)c1ccc(C(C)C)cc1,> 195 µM (not active)
3,Cc1ccc(/C=C/C(=O)OCC(=O)NCCN2C(=O)CSC2=O)o1,> 195 µM (not active)
4,COc1ccc(/C=C/C(=O)N2CCC(C(N)=O)CC2)cc1S(=O)(=O)N1CCOCC1,> 195 µM (not active)
5,CC(C)(C)C(CN1CCCC1)OC(=O)c1ccccc1 (configuration not stated),19.7 µM (active)
6,COc1cc(NS(=O)(=O)c2ccc(NC(=O)/C=C/C(=O)O)cc2)nc(OC)n1,> 195 µM (not active)
7,CC1CN(C(=O)c2cc(S(=O)(=O)N(C)c3ccc(F)cc3)ccc2Cl)CC(C)O1 (configuration not stated),> 195 µM (not active)
8,Cc1cc(OCC(=O)NCCO)cc(C)c1Cl,> 195 µM (not active)
9,O=C(CSc1nc2ccccc2s1)N/N=C/c1ccccc1C(=O)O,5.59 µM (active)
10,Cc1ccccc1C(=O)Nc1nnc(CC(=O)N/N=C/c2ccco2)s1,> 195 µM (not active)

# Biological target: Cytochrome P450 3A4 (Homo sapiens, UniProt P08684);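 further: CYP3A4 tested as one member of a cytochrome P450 panel screen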
# Sequence (P08684 whole entry): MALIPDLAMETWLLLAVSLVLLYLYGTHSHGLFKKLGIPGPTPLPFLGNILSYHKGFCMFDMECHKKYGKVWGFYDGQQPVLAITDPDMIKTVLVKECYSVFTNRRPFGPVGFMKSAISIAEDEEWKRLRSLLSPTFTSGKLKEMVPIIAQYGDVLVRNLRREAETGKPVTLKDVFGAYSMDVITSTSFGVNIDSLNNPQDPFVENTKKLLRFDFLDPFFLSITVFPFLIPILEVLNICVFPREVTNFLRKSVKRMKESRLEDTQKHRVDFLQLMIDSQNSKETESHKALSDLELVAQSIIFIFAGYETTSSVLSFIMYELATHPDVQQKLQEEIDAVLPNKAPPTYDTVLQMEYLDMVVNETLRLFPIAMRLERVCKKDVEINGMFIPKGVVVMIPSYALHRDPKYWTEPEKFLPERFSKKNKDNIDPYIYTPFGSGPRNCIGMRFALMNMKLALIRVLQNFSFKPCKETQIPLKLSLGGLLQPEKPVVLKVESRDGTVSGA
# Assay: not given
# Conditions: not given
row,Compound,AC50
1,NCC#Cc1ccccc1,15.8 µM (inconclusive)
2,CCCOc1ccc(C2C(=O)N(C3CCCCC3)CC(=O)N2C2CC2)cc1OC (configuration not stated),17.8 µM (inconclusive)
3,CS(=O)(=O)Nc1ccc(C(=O)N2CCN(c3ccccc3)CC2)cc1,25.1 µM (inconclusive)
4,CCn1c(=O)c2c(=O)cc(O)oc2c2ccccc21,0.631 µM (inconclusive)
5,O=C(C[N+]12CN3CN(CN(C3)C1)C2)c1ccc(-c2ccccc2)cc1,3.16 µM (inconclusive)
6,CCOC(=O)c1cccc(NC(=O)COc2ccc([N+](=O)[O-])cc2)c1,15.8 µM (inconclusive)
7,O=c1cnc2cnc(Nc3ccccc3)nc2n1C[C@H]1CCCO1,31.6 µM (inconclusive)
8,NCCSC(c1ccccc1)c1ccccc1,3.16 µM (inconclusive)
9,O=C(Cn1ccc([N+](=O)[O-])n1)NCc1cccs1,39.8 µM (inconclusive)
10,Cc1ccc(COn2c(-c3ccc(Cl)cc3)nc3ccc([N+](=O)[O-])cc32)cc1,3.55 µM (inconclusive)
11,COCCn1c(=O)c(-c2ccc(OC)cc2)nc2cnc(Oc3cccc(Cl)c3)nc21,2 µM (inconclusive)
12,C=CC(C)(C)c1[nH]c2ccccc2c1C1=C(O)C(O)=C(c2c[nH]c3c(CC=C(C)C)cccc23)C(=O)C1=O,25.1 µM (inconclusive)

# From ChEMBL document CHEMBL1201862, “PubChem BioAssay data set” (2004)
